From patent US20160185774A1, “Anti-Infective Compounds” (priority 2013, published 2016) come the findings set out here.

Data set [1] deals with M. tuberculosis H37Rv. The data set can be described thus: In vivo activity in a murine model of acute tuberculosis infection (lung CFU). The note with it: 50 mg/kg orally once daily, 3 days of treatment starting at day 6, female BalbC mice. As to the method: The effect of compounds 171 and 175 on the bacterial load of TB-infected mice was compared to that of the reference compound Isoniazid (INH). 8-week old female BalbC mice were infected with 8×10^6 M. tuberculosis H37Rv via intranasal inoculation. Mice were sacrificed at day 1 to control the number of CFU in the lungs. In the acute model of infection, mice were treated for 3 days, starting at day 6. Compounds were freshly dissolved in a 20% d-α-tocopheryl polyethylene glycol 1000 succinate (ETPGS) solution and administered by oral gavage as single dose per day. Bacterial load was assessed in lungs after homogenizing the organs in 1×PBS. Serial dilutions of organs homogenates were spread on Middlebrook 7H11 plates and CFU were determined after 3 weeks incubation at 37° C. under 5% CO2.

Data set [2] concerns M. tuberculosis. Put plainly: microbe, parasite or virus in culture. In kind it is cell-based. To be noted: Mycobacterium tuberculosis, 120 h; read-out: QUM (MIC80).

In brackets after ≈: the same amount, converted by molar mass.

With `CCc1nc2cc(C)ccn2c1C(=O)NCc1ccc(N2CCC(c3ccc(OC(F)(F)F)cc3)CC2)cc1` [Compound 171], in data set [1], the “CFU in the lungs compared to untreated mice” value was “reduction of CFU compared to untreated mice”. Besides, the MIC80 in data set [2] is < 1 µM.
The like results for `CCc1nc2cc(F)ccn2c1C(=O)NCc1ccc(N2CCC(c3ccc(OC(F)(F)F)cc3)CC2)cc1` [Compound 175] were, in that order, “reduction of CFU compared to untreated mice” and < 1 µM.
As for `CCc1nc2ccc(Cl)cn2c1C(=O)NCc1cccc(N2CCN(c3ccc(OC(F)(F)F)cc3)CC2)c1` [Compound 251], the melting point was > 168 °C (dec.). In addition, in data set [2], the MIC80 fell in the range of 1 to 20 µM (≈ 0.558 to 11.2 µg/mL).
As for `CCc1nc2ccc(Cl)cn2c1C(=O)NCc1ccc(CC2CCOCC2)cc1` [Compound 253], the melting point fell in the range of 132.2 to 133 °C. In addition, the MIC80 in data set [2] was < 1 µM.
Taken in the same sequence, the figures for `CCc1nc2cc(Cl)ccn2c1C(=O)NCc1ccc(CC2CCOCC2)cc1` [Compound 254] were > 125.9 °C (dec.) and < 1 µM.
In the case of `CCc1nc2ccc(Cl)cn2c1C(=O)NCc1cccc(N2CCC(Oc3ccc(OC(F)(F)F)cc3)CC2)c1` [Compound 255], the melting point lay within 126.3 to 127.2 °C. Further, in data set [2], the MIC80 was > 20 µM.
Turning to `CCc1nc2ccc(Cl)cn2c1C(=O)NCc1cc2cc(Cl)ccc2s1` [Compound 256], the melting point is > 220 °C. For the same compound, the MIC80 in data set [2] is < 1 µM.
In the case of `CCc1nc2ccccn2c1C(=O)NCc1ccc(C2CCOCC2)cc1` [Compound 257], the melting point was > 133.7 °C (dec.). Besides, the MIC80 in data set [2] is < 1 µM.
For the compound `CCc1nc2ccc(Cl)cn2c1C(=O)NCc1ccc(C2CCOCC2)cc1` [Compound 258], the melting point was > 195.5 °C (dec.). For the same compound, the MIC80 in data set [2] is < 1 µM.
As for `CCc1nc2cc(Cl)ccn2c1C(=O)NCc1ccc(C2CCOCC2)cc1` [Compound 259], the melting point is > 156.6 °C (dec.). The MIC80 in data set [2] was < 1 µM.
Take `CCc1nc2ccc(Cl)cn2c1C(=O)NCc1cc2cc(Cl)ccc2o1` [Compound 261]: the melting point lay in the range of 223.5 to 225.6 °C. Besides, the MIC80 in data set [2] was < 1 µM.
`CCc1nc2ccc(Cl)cn2c1C(=O)NCc1nc2ccc(Cl)cc2n1C` [Compound 262]: the melting point was > 220 °C. Further, the MIC80 in data set [2] was > 20 µM.
On to `CCc1nc2ccc(Cl)cn2c1C(=O)NCc1nc2cc(Cl)ccc2n1C` [Compound 263], for which the melting point is > 220 °C. In data set [2], the MIC80 is > 20 µM.
Taken in the same sequence, the figures for `CCc1nc2ccc(Cl)cn2c1C(=O)NCc1nc2ccc(Cl)cc2o1` [Compound 264] were 201.1 to 201.8 °C and 1 to 20 µM (≈ 0.389 to 7.78 µg/mL).
In the case of `CCc1nc2cc(Cl)ccn2c1C(=O)NCc1nc2cc(-c3ccc(OC(F)(F)F)cc3)ccc2o1` [Compound 265], the melting point was > 220 °C. Moreover, in data set [2], the MIC80 lay in the range of 1 to 20 µM (≈ 0.515 to 10.3 µg/mL).
Turning to `CCc1nc2ccc(Cl)cn2c1C(=O)NCc1nc2ccc(Cl)cc2s1` [Compound 266], the melting point was > 220 °C. The MIC80 in data set [2] is 1 to 20 µM (≈ 0.405 to 8.11 µg/mL).
On to `CCc1nc2ccc(F)cn2c1C(=O)NCc1ccc(N2CCC(c3ccc(OC(F)(F)F)cc3)CC2)cc1` [Compound 267], for which the melting point was > 167.9 °C (dec.). Also, the MIC80 in data set [2] is < 1 µM.
As to `CCc1nc2c(F)cccn2c1C(=O)NCc1ccc(N2CCC(c3ccc(OC(F)(F)F)cc3)CC2)cc1` [Compound 268], the melting point is > 177.7 °C (dec.). Besides, in data set [2], the MIC80 was < 1 µM.
Turning to `CCc1nc2cc(Cl)ccn2c1C(=O)NCc1nc2ccc(-c3ccc(OC(F)(F)F)cc3)cc2o1` [Compound 269], the melting point was > 220 °C. In data set [2], the MIC80 was < 1 µM.
The like results for `CCc1nc2cc(Cl)ccn2c1C(=O)NCc1ccc(N2CC(Cc3ccc(F)cc3)OC2=O)cc1` (stereo not drawn) [Compound 270] were, in that order, > 96.9 °C (dec.) and < 1 µM.
Taken in the same sequence, the figures for `CCc1nc2cc(Cl)ccn2c1C(=O)NCc1ccc(N2CC(COc3ccc(F)cc3)OC2=O)cc1` (stereo not drawn) [Compound 271] were > 97.1 °C and 1 to 20 µM (≈ 0.523 to 10.5 µg/mL).
The like results for `CCc1nc2ccc(Cl)cn2c1C(=O)NCc1ccc(CN2CCOC2=O)cc1` [Compound 282] were, in that order, 179 °C and 1 to 20 µM (≈ 0.413 to 8.26 µg/mL).
`CCc1nc2cc(Cl)ccn2c1C(=O)NCc1ccc(CN2CCOC2=O)cc1` [Compound 283] displayed a melting point of 172 °C. Further, the MIC80 in data set [2] lay within 1 to 20 µM (≈ 0.413 to 8.26 µg/mL).
The like results for `CCc1nc2ccc(Cl)cn2c1C(=O)NCc1ccc(CN2CCOCC2)cc1` [Compound 284] were, in that order, 133 °C and < 1 µM.
`CCc1nc2cc(Cl)ccn2c1C(=O)NCc1ccc(CN2CCOCC2)cc1` [Compound 285] yielded a melting point of 107 °C. The MIC80 in data set [2] is < 1 µM.
Take `CCc1nc2ccc(Cl)cn2c1C(=O)NCc1ccc(N(C)c2ccc(OC(F)(F)F)cc2)cc1` [Compound 286]: the melting point worked out at 138 °C. In addition, in data set [2], the MIC80 is < 1 µM.
Turning to `CCc1nc2cc(Cl)ccn2c1C(=O)NCc1ccc(N(C)c2ccc(OC(F)(F)F)cc2)cc1` [Compound 287], the melting point was found to be 134 °C. Also, the MIC80 in data set [2] was < 1 µM.
Taken in the same sequence, the figures for `CCc1nc2ccccn2c1C(=O)NCc1ccc(N(C)c2ccc(OC(F)(F)F)cc2)cc1` [Compound 288] were 120 °C and < 1 µM.
Taken in the same sequence, the figures for `COc1ccc2nc(C)c(C(=O)NCc3ccc(N4CCC(c5ccc(F)cc5)CC4)cc3)n2c1` [Compound 289] were 192 °C and < 1 µM.
Compound `COc1ccc2nc(C)c(C(=O)NCc3ccc(N4CCC(c5ccc(C)cc5)CC4)cc3)n2c1` [Compound 290] gave a melting point of 178 °C. Moreover, the MIC80 in data set [2] is < 1 µM.
Taken in the same sequence, the figures for `COc1ccc2nc(C)c(C(=O)NCc3ccc(N4CCC(c5ccc(C(F)(F)F)cc5)CC4)cc3)n2c1` [Compound 291] were 207 °C and < 1 µM.
The compound `COc1ccc2nc(C)c(C(=O)NCc3ccc(N4CCC(c5ccc(OC(F)(F)F)cc5)CC4)cc3)n2c1` [Compound 292] showed a melting point of 183 °C. Besides, in data set [2], the MIC80 was < 1 µM.
`Cc1ccc2nc(C)c(C(=O)NCc3ccc(N4CCC(c5ccc(F)cc5)CC4)cc3)n2c1` [Compound 293] displayed a melting point of 181 °C. The MIC80 in data set [2] was < 1 µM.
The compound `Cc1ccc2nc(C)c(C(=O)NCc3ccc(N4CCC(c5ccc(Cl)cc5)CC4)cc3)n2c1` [Compound 294] came in with a melting point of 188 °C. In addition, the MIC80 in data set [2] is < 1 µM.
Taken in the same sequence, the figures for `COc1ccc(C2CCN(c3ccc(CNC(=O)c4c(C)nc5ccc(C)cn45)cc3)CC2)cc1` [Compound 295] were 184 °C and < 1 µM.
Regarding `Cc1ccc2nc(C)c(C(=O)NCc3ccc(N4CCC(c5ccc(OC(F)(F)F)cc5)CC4)cc3)n2c1` [Compound 296], the melting point was found to be 184 °C. Further, the MIC80 in data set [2] is < 1 µM.
